Data on 18 compounds can be found in patent US5055484A, “7(1H-pyrrol-3-YL)-substituted 3,5-dihydroxyhept-6-enoic acids, 7-(1H-pyrrol-3-YL)-substituted 3,5-dihyroxyhept-anoic acids, their corresponding delta-lactones and salts, their use as medicaments and pharmaceutical products and intermediates” (Hoechst Aktiengesellschaft, priority 1987, dated 1991).

In one assay the target is T1, HMG--CoA reductase (Rattus norvegicus, UniProt P51639).
T1 sequence (P51639 1-887): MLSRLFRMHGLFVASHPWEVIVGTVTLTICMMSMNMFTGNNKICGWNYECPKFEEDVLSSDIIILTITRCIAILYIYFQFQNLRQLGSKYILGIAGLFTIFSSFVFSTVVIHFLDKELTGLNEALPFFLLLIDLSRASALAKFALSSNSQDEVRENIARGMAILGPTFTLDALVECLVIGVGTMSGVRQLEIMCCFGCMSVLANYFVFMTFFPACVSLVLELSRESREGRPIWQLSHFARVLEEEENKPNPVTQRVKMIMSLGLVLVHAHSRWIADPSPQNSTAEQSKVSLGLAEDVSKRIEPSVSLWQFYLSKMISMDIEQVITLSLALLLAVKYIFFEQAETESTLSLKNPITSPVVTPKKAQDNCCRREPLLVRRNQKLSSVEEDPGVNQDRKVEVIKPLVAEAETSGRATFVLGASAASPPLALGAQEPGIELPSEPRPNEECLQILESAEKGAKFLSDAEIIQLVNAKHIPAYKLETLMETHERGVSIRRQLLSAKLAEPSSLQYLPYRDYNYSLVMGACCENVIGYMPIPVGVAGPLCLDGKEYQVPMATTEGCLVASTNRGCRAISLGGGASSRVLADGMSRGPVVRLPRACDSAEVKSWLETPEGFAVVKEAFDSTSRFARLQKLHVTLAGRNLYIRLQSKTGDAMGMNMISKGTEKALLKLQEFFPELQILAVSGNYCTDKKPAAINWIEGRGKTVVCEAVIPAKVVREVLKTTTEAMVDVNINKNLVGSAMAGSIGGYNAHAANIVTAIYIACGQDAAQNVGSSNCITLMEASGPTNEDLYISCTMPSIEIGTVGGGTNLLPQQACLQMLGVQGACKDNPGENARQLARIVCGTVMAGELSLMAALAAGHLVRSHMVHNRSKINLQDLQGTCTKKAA
The assay is described as follows: inhibition of HMG-CoA reductase activity on solubilized enzyme preparations from rat liver microsomes. Format: biochemical. The protocol: The inhibition of HMG--CoA reductase activity by the compounds of the general formulae I and II was determined on solubilized enzyme preparations from rat liver microsomes.
After a changeover in the day/night rhythm of the rats, enzyme production was induced with cholestyramine (®Cuemid) The substrate used was (S,R) ^14 C--HMG--CoA, and the concentration of NADPH was maintained by a regenerating system during the incubation. ^14 C-mevalonate was removed from substrate and other products (for example ^14 C--HMG) by column elution, with the elution profile of each individual sample being determined. Inclusion of ^3 H-mevalonate throughout was dispensed with because the data to be determined were of the relative inhibitory effect. In each test series the enzyme-free control, the enzyme-containing normal mixture (=100%) and those with added products were treated together. Each individual value was formed as the mean of 3 parallel samples. The t test was used to assess the significance of the differences between the means for product-free and productcontaining samples.

A further assay deals with cholesterol biosynthesis. Put plainly: inhibition of cholesterol biosynthesis by incorporation of 14C-acetate into cholesterol in HEP G2 cell cultures. Format: cell-based. The conditions noted are these: for % potency relative to mevinolin sodium at IC70: comparison of IC70 with mevinolin sodium salt (internal standard). As for the experimental part: In addition, the inhibition of cholesterol biosynthesis by selected compounds was tested by the incorporation of ^14 C-precursor in cholesterol in cell cultures.
Monolayers of HEP G2 cells in lipoprotein-free nutrient medium were preincubated with various concentrations of the test substances for 1 hour. The ^14 C-labeled precursor sodium ^14 C-acetate was added, and the incubation was then continued for 3 hours. Subsequently 3H-cholesterol was added as internal standard, and a portion of these cells underwent alkaline hydrolysis. The lipids from the hydrolyzed cells were extracted with chloroform/methanol. Carrier cholesterol was added to this lipid mixture which was then subjected to preparative thin-layer chromatography, the cholesterol band was visualized with iodine vapor and then isolated, and the amount of ^14 C-cholesterol formed from the ^14 C-precursor was determined by scintigraphy. Cellular protein was determined in an aliquot of the cells, so that the amount of ^14 C-cholesterol formed from ^14 C-precursor in unit time per mg of cellular protein can be calculated. The solvent control is used for comparison of the inhibitory effect of an added test product, so that it is possible to state directly the inhibition of cholesterol biosynthesis at a particular molar concentration of the test product in the medium. The integrity of the cell culture and the absence of cell damage due to exposure to the products was checked morphologically (light microscope) in an aliquot of the cell cultures. […] The relative potency was determined by comparing the IC70 values and IC50 values for the test compound and for mevinolin sodium salt (internal standard).

The mark [1] stands for this setting: HEP G2 cells, 1 h preincubation, 3 h with 14C-acetate.

`COC(=O)C[C@H](O)C[C@H](O)CCc1c(-c2ccc(F)cc2)c(C)n(-c2ccccc2)c1C(C)C` (racemic) [Example 7, Methyl 3(RS),5(RS)-dihydroxy-7-[1-phenyl-2-isopropyl-4-(4-fluorophenyl)-5-methyl-1H-pyrrol-3-yl]heptanoate]: the IC50 (in general, the point on the concentration scale where inhibition reaches its midpoint) at HMG--CoA reductase was determined as 8 nM. In other words, the single-digit nanomolar range.

Consider `COC(=O)C[C@H](O)C[C@H](O)/C=C/c1c(-c2ccc(F)cc2)cn(-c2ccccc2)c1C(C)C` (relative stereo) [Example 11, methyl 3(RS),5(SR)-dihydroxy-7-[1-phenyl-2-isopropyl-4-(4-fluorophenyl)-1H-pyrrol-3-yl]hept-6(E)-enoate], for which the half-maximal inhibitory concentration (IC50) on HMG--CoA reductase was 8 nM.

As to `CC[C@H](C)C(=O)O[C@H]1C[C@@H](C)C=C2C=C[C@H](C)[C@H](CC[C@@H](O)C[C@@H](O)CC(=O)O)[C@H]21` [mevinolin sodium, reference compound], it took 150 nM to reach the 70% level in the assay with cholesterol biosynthesis (Homo sapiens, HepG2) (IC70). The compound also displayed an IC50 in the assay with cholesterol biosynthesis (Homo sapiens, HepG2, HEP G2 cells, mean figure, varies somewhat from cell culture to cell culture) of 50 nM.

On HMG--CoA reductase, `COC(=O)C[C@H](O)C[C@H](O)CCc1c(-c2ccc(F)cc2)c(C)n(-c2ccccc2)c1C` (racemic) [Example 3, Methyl 3(RS),5(RS)-dihydroxy-7-[1-phenyl-2,5-dimethyl-4-(4-fluorophenyl)-1H-pyrrol-3-yl]heptanoate] came in with an IC50 of 80 nM. This lies in the double-digit nanomolar range.

Compound `COC(=O)C[C@H](O)C[C@H](O)/C=C/c1c(-c2ccc(F)cc2)cn(C(C)C)c1C` (relative stereo) [Example 15, methyl 3(RS),5(SR)-dihydroxy-7-[1-isopropyl-2-methyl-4-(4-fluorophenyl)-1H-pyrrol-3-yl]hept-6(E)-enoate] returned an IC50 against HMG--CoA reductase of 70 nM.

At HMG--CoA reductase, `CC(C)c1c(/C=C/[C@@H](O)C[C@@H](O)CC(=O)O)c(-c2ccc(F)cc2)cn1C1CCCCC1` (relative stereo) [Example 20, Sodium 3(RS),5(SR)-dihydroxy-7-[1-cyclohexyl-2-isopropyl-4(4-fluorophenyl)-1H-pyrrol-3-yl]hept-6(E)-enoate] returned an IC50 of 12 nM.

With `Cc1c(CC[C@@H](O)C[C@@H](O)CC(=O)[O-])c(-c2ccc(F)cc2)c(C)n1-c1ccccc1.[Na+]` (racemic) [Example 4, Sodium 3(RS),5(RS)-dihydroxy-7-[1-phenyl-2,5-dimethyl-4-(4-fluorophenyl)-1H-pyrrol-3-yl]heptanoate], in the assay with cholesterol biosynthesis (HEP G2 cells, 1 h preincubation, 3 h with 14C-acetate, comparison of IC50 with mevinolin sodium salt (internal standard)), the “% potency relative to mevinolin sodium at IC50” value is given as 450%. Further, the “% potency relative to mevinolin sodium at IC70” value in the assay on cholesterol biosynthesis (setting [1]) is 51%. The compound further returned an IC50 at HMG--CoA reductase of 8.7 nM.

As for `CC(C)c1c(CC[C@@H](O)C[C@@H](O)CC(=O)[O-])c(-c2ccc(F)cc2)cn1-c1ccccc1.[Na+]` (racemic) [Example 14, Sodium 3(RS),5(RS)-dihydroxy-7-[1-phenyl-2-isopropyl-4-(4-fluorophenyl)-1H-pyrrol-3-yl]heptanoate], in the assay on cholesterol biosynthesis (setting [1]), the “% potency relative to mevinolin sodium at IC70” value is listed as 150%. Besides, the IC50 on HMG--CoA reductase is 3 nM.

For the compound `COC(=O)C[C@H](O)C[C@H](O)/C=C/c1c(-c2ccc(F)cc2)cn(-c2ccccc2)c1C` (relative stereo) [Example 9, methyl 3(RS),5(SR)-dihydroxy-7-[1-phenyl-2-methyl-4-(4-fluorophenyl)-1H-pyrrol-3-yl]hept-6(E)-enoate], on HMG--CoA reductase, the 50% inhibitory concentration (IC50) was found to be 120 nM.

For the compound `Cc1c(CC[C@@H](O)C[C@@H](O)CC(=O)O)c(-c2ccc(F)cc2)cn1C(C)C` (racemic) [Example 18, Sodium 3(RS),5(RS)-dihydroxy-7-[1-isopropyl-2-methyl-4-(4-fluorophenyl)-1H-pyrrol-3-yl]heptanoate], the IC50 at HMG--CoA reductase came out at 50 nM.

`Cc1c(-c2ccc(F)cc2)c(CC[C@@H](O)C[C@@H](O)CC(=O)O)c(C(C)C)n1-c1ccccc1` (racemic) [Example 8, Sodium 3(RS),5(RS)-dihydroxy-7-[1-phenyl-2-isopropyl-4-(4-fluorophenyl)-5-methyl-1H-pyrrol-3-yl]heptanoate] registered an IC50 against HMG--CoA reductase of 2.5 nM. This IC50 lies about 20-fold lower than the previous one.

`COC(=O)C[C@H](O)C[C@H](O)/C=C/c1c(-c2ccc(F)cc2)c(C)n(-c2ccccc2)c1C(C)C` (relative stereo) [Example 5, Methyl 3(RS),5(SR)-dihydroxy-7-[1-phenyl-2-isopropyl-4-(4-fluorophenyl)-5-methyl-1H-pyrrol-3-yl]hept-6(E)-enoate] registered an IC50 against HMG--CoA reductase of 7 nM. This IC50 lies about 2.8-fold higher than the previous one.

As for `Cc1c(/C=C/[C@@H](O)C[C@@H](O)CC(=O)O)c(-c2ccc(F)cc2)c(C)n1-c1ccccc1` (relative stereo) [Example 2, Sodium 3(RS),5(SR)-dihydroxy-7-[1-phenyl-2,5-dimethyl-4-(4-fluorophenyl)-1H-pyrrol-3-yl]hept-6(E)-enoate], it took 120 nM to reach half-maximal inhibition at HMG--CoA reductase (IC50).

As for `CC(C)c1c(CC[C@@H](O)C[C@@H](O)CC(=O)O)c(-c2ccc(F)cc2)cn1C(C)C` (racemic) [Example 26, Sodium 3(RS),5(RS)-dihydroxy-7-[1,2-diisopropyl-4-(4-fluorophenyl)-1H-pyrrol-3-yl]heptanoate], the IC50 on HMG--CoA reductase was determined as 3 nM. This IC50 is about 40-fold lower than that of the compound before.

`COC(=O)C[C@H](O)C[C@H](O)CCc1c(-c2ccc(F)cc2)cn(C(C)C)c1C` (racemic) [Example 17, Methyl 3(RS),5(RS)-dihydroxy-7-[1-isopropyl-2-methyl-4-(4-fluorophenyl)-1H-pyrrol-3-yl]heptanoate] yielded an IC50 on HMG--CoA reductase of 100 nM.

At HMG--CoA reductase, `Cc1c(/C=C/[C@@H](O)C[C@@H](O)CC(=O)O)c(-c2ccc(F)cc2)cn1C(C)C` (relative stereo) [Example 16, Sodium 3(RS),5(SR)-dihydroxy-7-[1-isopropyl-2-methyl-4-(4-fluorophenyl)-1H-pyrrol-3-yl]hept-6(E)-enoate] showed an IC50 of 160 nM.

With `COC(=O)C[C@H](O)C[C@H](O)/C=C/c1c(-c2ccc(F)cc2)c(C)n(-c2ccccc2)c1C` (relative stereo) [Example 1, methyl 3(RS),5(SR)-dihydroxy-7-[1-phenyl-2,5-dimethyl-4-(4-fluorophenyl)-1H-pyrrol-3-yl]hept-6(E)-enoate], the “% potency relative to mevinolin sodium at IC70” value with cholesterol biosynthesis (setting [1]) is reported as 180%. The IC50 at HMG--CoA reductase turned out to be 320 nM.

Take `COC(=O)C[C@H](O)C[C@H](O)CCc1c(-c2ccc(F)cc2)cn(-c2ccccc2)c1C(C)C` (racemic) [Example 13, Methyl 3(RS),5(RS)-dihydroxy-7-[1-phenyl-2-isopropyl-4(4-fluorophenyl)-1H-pyrrol-3-yl]heptanoate]: the half-maximal inhibitory concentration (IC50) against HMG--CoA reductase is 15 nM. That is a double-digit nanomolar value.
